Assay results: patent US6124380A, “Metal containing e-coat catalysts optionally with tin catalysts” (priority 1999, dated 2000)

Experiments:
Rats = experiment: Acute Oral toxicity; format: in vivo
Description: (§1) Generally, the toxicity of tin compounds increases as the organic substituents on the tin atom increase from one to two to three whereas there is a decrease in toxicity with increasing alkyl chain length where the organotin compound is alkyl substituted. However, the extraordinary decrease in toxicity in TOTO due to alkyl chain length is quite unexpected. The relatively low toxicity of TOTO which makes it especially suitable in industrial coating applications is illustrated by the following: […]

Acute Dermal toxicity = format: in vivo
Description: as §1

Rabbits [1] = experiment: Primary Dermal Irritation; format: in vivo
Description: as §1

Rabbits [2] = experiment: Primary Eye Irritation; format: in vivo
Description: as §1

Salmonella and E. Coli = experiment: Mutation Assays Ames/Salmonella and E. Coli; format: cell-based
Description: as §1

Daphnia = experiment: Aquatic Toxicity Daphnia; format: in vivo
Description: as §1

Flathead Minnow = experiment: Aquatic Toxicity Flathead Minnow; format: in vivo
Description: as §1

[3] = Toxicity of TOTO compared with TBTO; details: in vivo
Description: as §1

| SMILES | Acute Oral LD50 (Rats) [mg/kg] | Acute Oral, comment (Rats) | Acute Dermal, comment (Acute Dermal toxicity; No more than Slightly) | Acute Dermal LD50 (Acute Dermal toxicity; in vivo, topical or ocular) [mg/kg] | Primary Dermal Irritation, comment (Rabbits [1]; rabbits) | Primary Dermal Irritation (Rabbits [1]; score out of 8.0, rabbits) | Primary Eye Irritation, comment (Rabbits [2]; rabbits) | Primary Eye Irritation (Rabbits [2]; score out of 110.0, rabbits) | Mutation Assays (Salmonella and E. Coli) | Aquatic Toxicity 48 h LC50 Daphnia (Daphnia; solubility limit) | Aquatic Toxicity 96 h LC50 Flathead Minnow (Flathead Minnow; solubility limit) | Toxicity relative to TBTO [3] | Aquatic Toxicity 48 h LC50 Daphnia (comment, TBTO) (Daphnia) [µg/mL] | Aquatic Toxicity 96 h LC50 Flathead Minnow (comment, TBTO) (Flathead Minnow) [µg/mL] |
| --- | --- | --- | --- | --- | --- | --- | --- | --- | --- | --- | --- | --- | --- | --- |
| CCCCCCC[CH2][Sn]([CH2]CCCCCCC)([CH2]CCCCCCC)[O][Sn]([CH2]CCCCCCC)([CH2]CCCCCCC)[CH2]CCCCCCC [TOTO, Bis(trioctyltin)oxide] | > 5000 | Practically Nontoxic | Slightly | > 2000 | Slightly Irritating | 1.75 | Slightly Irritating | 2.6 | Not Mutagenic | > 87,000 ug/L | > 13,500 ug/L | significantly less toxic than TBTO |  |  |
| CCC[CH2][Sn]([CH2]CCC)([CH2]CCC)[O][Sn]([CH2]CCC)([CH2]CCC)[CH2]CCC [TBTO, Bis(tributyltin) oxide] |  |  |  |  |  |  |  |  |  |  |  |  | 0.002 | 0.05 |
